Measurements published in publication PMC11470524, “A venom peptide-induced NaV channel modulation mechanism involving the interplay between fixed channel charges and ionic gradients” (The Journal of Biological Chemistry, 2024).
Read-outs that look alike come from different tables or passages of the source. Where no end group is shown, it is not given here.

What was measured:
NaV channels = details: cited from earlier work
human NaV1.7 channel [1] = biological target: T1, human NaV1.7 channel (Homo sapiens, UniProt Q15858); test: Cumulative concentration-response, persistent (non-inactivating) current I40ms/Ipeak, NaV1.7; format: cell-based; details: NaV1.7, HEK293, ratio of current at 40 ms to peak current, mean ± SD
T1 sequence (Q15858 whole entry): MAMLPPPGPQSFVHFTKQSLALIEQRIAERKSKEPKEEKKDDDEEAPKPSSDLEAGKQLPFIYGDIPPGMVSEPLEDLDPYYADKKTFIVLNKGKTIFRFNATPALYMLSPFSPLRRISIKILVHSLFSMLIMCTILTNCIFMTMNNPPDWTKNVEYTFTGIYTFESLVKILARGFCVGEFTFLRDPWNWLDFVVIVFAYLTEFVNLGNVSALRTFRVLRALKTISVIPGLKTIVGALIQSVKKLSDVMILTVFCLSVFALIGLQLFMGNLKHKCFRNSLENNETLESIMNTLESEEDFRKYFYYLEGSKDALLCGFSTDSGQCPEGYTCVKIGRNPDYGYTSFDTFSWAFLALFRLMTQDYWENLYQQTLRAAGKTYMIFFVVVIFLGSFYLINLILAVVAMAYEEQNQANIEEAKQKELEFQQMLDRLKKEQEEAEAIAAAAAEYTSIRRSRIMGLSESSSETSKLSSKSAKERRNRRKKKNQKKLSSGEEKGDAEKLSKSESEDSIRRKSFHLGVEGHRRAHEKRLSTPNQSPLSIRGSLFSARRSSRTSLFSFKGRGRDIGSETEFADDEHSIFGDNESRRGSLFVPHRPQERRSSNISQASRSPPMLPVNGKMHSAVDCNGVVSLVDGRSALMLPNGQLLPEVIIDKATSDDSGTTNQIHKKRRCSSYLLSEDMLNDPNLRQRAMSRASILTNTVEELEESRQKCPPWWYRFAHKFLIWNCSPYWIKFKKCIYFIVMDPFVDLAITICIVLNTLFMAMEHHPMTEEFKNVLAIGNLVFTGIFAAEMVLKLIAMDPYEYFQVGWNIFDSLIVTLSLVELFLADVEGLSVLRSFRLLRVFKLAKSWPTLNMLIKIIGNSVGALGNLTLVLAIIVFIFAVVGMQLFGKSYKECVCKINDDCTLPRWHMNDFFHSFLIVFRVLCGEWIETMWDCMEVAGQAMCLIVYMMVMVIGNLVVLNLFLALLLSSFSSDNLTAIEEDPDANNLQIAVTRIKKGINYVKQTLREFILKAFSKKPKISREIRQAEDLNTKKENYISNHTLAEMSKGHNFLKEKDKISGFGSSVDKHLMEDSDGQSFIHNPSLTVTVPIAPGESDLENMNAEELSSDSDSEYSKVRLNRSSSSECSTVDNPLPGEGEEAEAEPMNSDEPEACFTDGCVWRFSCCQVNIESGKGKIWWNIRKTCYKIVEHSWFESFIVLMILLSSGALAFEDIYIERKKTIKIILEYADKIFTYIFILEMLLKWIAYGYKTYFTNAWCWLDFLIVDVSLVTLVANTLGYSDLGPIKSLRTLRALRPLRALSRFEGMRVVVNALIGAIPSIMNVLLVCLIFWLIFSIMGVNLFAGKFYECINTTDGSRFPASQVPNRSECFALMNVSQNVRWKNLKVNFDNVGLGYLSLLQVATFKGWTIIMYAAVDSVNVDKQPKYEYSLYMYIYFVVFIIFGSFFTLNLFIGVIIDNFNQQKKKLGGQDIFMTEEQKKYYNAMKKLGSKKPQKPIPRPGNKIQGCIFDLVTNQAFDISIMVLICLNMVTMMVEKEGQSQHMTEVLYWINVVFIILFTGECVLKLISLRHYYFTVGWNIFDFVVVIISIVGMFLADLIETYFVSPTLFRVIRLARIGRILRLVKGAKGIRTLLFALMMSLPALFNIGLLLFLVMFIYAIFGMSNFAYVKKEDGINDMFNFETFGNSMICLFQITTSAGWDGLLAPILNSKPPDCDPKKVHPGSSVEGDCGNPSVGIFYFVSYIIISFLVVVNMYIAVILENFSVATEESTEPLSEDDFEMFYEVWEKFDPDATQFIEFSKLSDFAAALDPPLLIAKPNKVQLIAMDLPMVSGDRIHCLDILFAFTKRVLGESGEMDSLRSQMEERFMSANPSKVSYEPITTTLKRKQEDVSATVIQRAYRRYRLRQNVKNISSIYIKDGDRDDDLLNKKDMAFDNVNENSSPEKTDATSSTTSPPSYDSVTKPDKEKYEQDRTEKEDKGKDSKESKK

human NaV1.7 channel [2] = biological target: T1, human NaV1.7 channel; test: Whole-cell current-voltage (I-V) relationship, NaV1.7, standard solution; format: cell-based
Method: Data are expressed as mean ± SD.
Whole-cell current-voltage (I-V) recordings were recorded with an EPC 10 USB Heka patch clamp amplifier or an Axon 700B amplifier (Axon Instruments). Currents were filtered (−3 dB, 4-pole Bessel) at 2 kHz and sampled at 50 kHz. […] Leak subtraction was done using a p/4 protocol (4 pulses at a delay of 100 μs). Cell responses were accepted for analysis if the series resistance was ≤ 12 MΩ and was compensated for by ≥ 60%. […] The extracellular solution contained (in mM): 140 NaCl, 5 KCl, 1 MgCl2, 10 Hepes, and 10 D-glucose, adjusted to pH 7.4 with NaOH, whereas the intracellular solution contained (in mM) the following: 140 CsCl, 10 NaCl, 2 10 Hepes, and 5 EGTA adjusted to pH 7.4 with CsOH.
Whole-cell conductance (G) was calculated using the following relation.(1) G=I/(Vm−Vrev) Where, I is the peak current, Vm is the corresponding step voltage and Vrev is the reversal potential (potential where current direction changes).

## COc1ccc(C(=O)O[C@H]2CC[C@@]3(C)[C@@H]4CC[C@H]5[C@]6(O)C[C@H](O)[C@@]7(O)[C@@H](CN8C[C@@H](C)CC[C@H]8[C@@]7(C)O)[C@]6(O)C[C@@]53O[C@]24O)cc1OC [veratridine]
NaV channels; ref [15], [17], [18]
  Effect on NaV channels: direct channel activators (agonists)

## LAPIFALLLLSGLFSLPALQHYIAANYIN-NH2 [Ta3a[E24A + K25A]]
Human NaV1.7 channel [1]
  Efficacy (maximum response), I40ms/Ipeak: 0.35 ± 0.33
Human NaV1.7 channel [2]; 30 nM analog, n = 4 cells
  I-V profile versus control: indistinguishable from control
Human NaV1.7 channel [2]; 1 μM analog, n = 7 cells
  Leftward shift of V1/2: −4.5 mV
  Leftward shift of Vrev: −28 mV
  Reduction in peak current: ~2 fold

## ProTx-II: tarantula toxin
NaV channels; ref [20], [21]
  Effect on NaV channels: inhibit NaV channel currents by stabilizing S4 helices in the resting state

## batrachotoxin
NaV channels; ref [15], [17], [18]
  Effect on NaV channels: direct channel activators (agonists)
NaV channels; ref [15], [17]
  Effect on ion selectivity: alter ion selectivity

## huwentoxin-IV
NaV channels; ref [20], [21]
  Effect on NaV channels: inhibit NaV channel currents by stabilizing S4 helices in the resting state
